Source: patent US11497740B2, “Use of Jumonji C demethylase inhibitors for the treatment and prevention of chemotherapy resistance and radioresistance in cancer” (THE BOARD OF REGENTS OF THE UNIVERSITY OF TEXAS SYSTEM, priority 2016, dated 2022)

How the values were obtained:
[1] = system: H1299 Parental cells; experiment: Emergence of paclitaxel+carboplatin drug-tolerant colonies, H1299 Parental; type: cell-based, human; settings: sub-lethal doses with paclitaxel+carboplatin
Text: FIGS. 8A-8E. […] Response was greater than additive, indicated by positive ΔBliss. […] Representative images from replicate assays (n=3) are shown. […] See also FIGS. 15-16.

[2] = system: homologous recombination (HR); experiment: Green fluorescent protein HR reporter assay, H1299; type: cell-based, Human; settings: H1299 cells with integrated construct
Procedure: (§1) The green fluorescent protein assay was performed as described by Seluanov et al. To generate reporter cell lines 2 million H1299 cells were transfected with 0.5 μg of linearized NHEJ-I, or HR reporter constructs using the Amaxa Nucleofector; program X-005. G418, at 1 mg/ml, was added to the media 1 day post-transfection. Then Transient expression of the I-SceI endonuclease was used to generate a DNA DSB at the integrated GFP gene sequences. Briefly, H1299 cells containing the NHEJ or the HR constructs treated by 4 h with JIB-04 or DMSO were transfected with the pCMV3xnls-I-SceI (5 μg, functional endonuclease) and a pN1-mCherry plasmid (0.05 μg) as transfection control as previously stated. For the analysis of NHEJ and HR cells were harvested, resuspended in ˜1 ml 1×PBS, put on ice, and run on a BD FACScan instrument. GFP and mCherry fluorescence was analyzed using FlowJo software. Red-versus-green was plotted and DNA repair efficiency was calculated from the number of GFP-positive cells divided by the number of cells mCherry-positive cells.

[3] = system: H3K9me3 at DSBs; experiment: γH2AX immunoprecipitation, H3K9me3 at DSBs; type: cell-based, Human; settings: JIB-04 4 h, IR 20 Gy
Procedure: For Histone demethylase activity determination 10×10^6 H1299 cells were seeded in P150 plates. Next day cells were preincubated with JIB-04 for 4 h and then irradiated with 20 Gy. Media was removed from cells, washed with PBS and fixed with 3% w/v PFA, 2% w/v sucrose in PBS for 1 min. Then cells were washed, scraped into media, pelleted by centrifugation (at 500 g for 2 min) and washed with Phosphatase inhibitor 1×, 1 μM Wortmannin (WM) and protease inhibitors 1× (Sigma). Cell pellets were re-suspended in 2.5× the packed cell volume (PCV) of Nucleosome Preparation Buffer (NPB, 10 mM HEPES [pH 7.9], 10 mM KCl, 1.0 mM CaCl2, 1.5 mM MgCl2, 0.34 M sucrose, 10% glycerol, 1 mM DTT, 0.1% Triton X-100) containing Phosphatase inhibitor, 1 μM Wortmannin (WM) and protease inhibitors (Sigma) and 100 U ml-1 micrococcal nuclease (MNase) and incubated at […] for 45 min (note: WM is required to block in vitro DNA-PK/ATM activation by MNase-produced DSBs). An equal volume of Nucleosome Solubilization Buffer (NSB=Nucleosome preparation buffer+2% [v/v] NP-40, 2% [v/v] Triton X-100, 600 mM NaCl) was then added. Samples were then vortexed, sonicated briefly and centrifuged at 10,000 rpm for 10 min. […] Protein levels on samples were quantified and equal amounts of protein run on 4-12% SDS acrylamide gels. […] Quantification was done using the using ImageJ software (National Institute of Health, NIH)

[4] = system: non-homologous end joining (NHEJ); experiment: Green fluorescent protein NHEJ reporter assay, H1299; type: cell-based, Human; settings: H1299 cells with integrated construct
Procedure: as §1

[5] = system: RAD51; experiment: RAD-51 foci kinetics after IR; type: cell-based, Human; settings: JIB-04 25 nM 4 h, 10 Gy
Procedure: (§2) NSCLCs were seeded onto Lab-Tek II Chamber Slides (Thermo Fisher) and 24 hours later pretreated with JIB-04 or DMSO for 4 h. Then cells were exposed to a total dose of 2 Gy (γH2AX and 53BP1) or 10 Gy (RAD-51 and DNAPKcs p-T2609) radiation. For knockdown and overexpression experiments H1299 cells were transfected using the Amaxa Nucleofector; program X-005. Specifically, 3×10^6 were transfected with siRNA duplexes targeting JMJD2A, JMJD2B, Jarid1A, Jarid1b, scrambled siRNA (250 nM final concentration) or expression vectors pCMVHA-JMJD2A, pCMVHA-JMJD2B, pCMVHA-Jarid1A, pCMVHA-Jarid1B, PC-2 for 72 hours, followed by quantification of expression or irradiation. Then, cells were fixed in 4% formaldehyde/PBS for 15 min, permeabilized with 0.5% Triton X-100 for 15 min on ice, and blocked with 5% bovine serum albumin in PBS for 1 h. The slides were incubated with an antibody against phospho-Histone γH2AX (1:1000, 3 h at room temperature), 53BP1 (1:500, 3 h at room temperature), Rad-51 (1:500, 48 hs 4° C.) or DNAPKcs p-T2609 (1:500, 48 hs 4° C.). Alexa Fluor 488-conjugated goat anti-Rabbit, […] goat anti-mouse or rhodamine red-conjugated goat anti-mouse secondaries antibodies were used (1:1000, 1 h at room temperature). […] Cells were analyzed on a Zeiss upright fluorescent microscope.

[6] = system: H3K9me3 demethylases; experiment: Histone demethylase activity in H1299 cellular extracts (H3K9me3); type: cell-based, Human; settings: JIB-04 4 h, no IR
Procedure: (§3) For Histone demethylase activity determination 2×10^6 H1299 cells were seeded in P150 plates. After 24 h cells were pretreated with JIB-04 or DMSO for 4 h, irradiated with a total dose of 8 Gy of radiation. Then cells were sonicated (3×4 sec) and equal amounts of protein were incubated with a histone H3K4me3 or H3K9me3 substrate in a reaction buffer containing cofactors for 1 h at 37° C. Finally specific immune-detection of the H3K4me2 or H3K9me2 product using the Epigentek kit P-3081 for H3K9me3 demethylation and P-3083 for H3K4me3 demethylation. Background readings were given by heat inactivated extracts.

[7] = system: H3K4me3 demethylase Jumonji enzymes; experiment: Histone demethylase activity in H1299 cellular extracts (H3K4me3); type: cell-based, Human; settings: JIB-04 4 h
Procedure: as §3

[8] = system: DNA-PKcs; experiment: DNA-PKcs p-T2609 foci kinetics after IR; type: cell-based, Human; settings: H1299; JIB-04 16 nM 4 h, 10 Gy
Procedure: as §2

SMILES	emergence of drug-tolerant persister colonies [1]	HR repair efficiency [2]	H3K9me3 at sites of DNA damage marked by γH2AX [3]	NHEJ repair efficiency [4]	RAD51 foci resolution [5]	RAD51 recruitment (foci formation) [5]	basal H3K9me3 demethylase activity [6]	IR-increased H3K4me3 demethylase activity ([7]; IR 8 Gy, 15 min after radiation)	basal H3K4me3 demethylase activity ([7]; no IR)	DNA-PKcs foci resolution [8]	DNA-PKcs recruitment to DSBs [8]
CCOC(=O)CCNc1cc(N2CCc3ccccc3CC2)nc(-c2ccccn2)n1 [GSK-J4]	prevented the emergence of drug-tolerant persister colonies										
Clc1ccc(N/N=C(\c2ccccc2)c2ccccn2)nc1 [JIB-04]		≤ 50 % of normal levels	No changes in H3K9me3	≤ 50 % of normal levels	impaired foci resolution	significantly diminished RAD51 recruitment	did not have any effects on basal activity	blocked this increased activity	did not have any effects on basal activity	majority of DNA-PKcs foci remained unresolved even 24 h post irradiation	robust deficiency in DNA-PKcs recruitment with foci not forming until 6 h post IR
